Results taken from US5177075A, “Substituted dihydroisoquinolinones and related compounds as potentiators of the lethal effects of radiation and certain chemotherapeutic agents; selected compounds, analogs and process” (priority 1991, dated 1993).
Entries after “also recorded” stand apart in the source; their conditions may differ. Where two headings read alike, the source gives them in different places. Blank lines part the entries; values can stand above or below the molecule they belong to.

Tests used:
tumors = conditions: cited from earlier work
V79 cells = test: In vitro radiosensitizing activity at 37°: shoulder modifying effects (reduction in Dq); type: cell-based
Experimental: The shoulder region represents the inherent repair capabilities of a given cell line. […] To determine the hypoxic x-ray dose response, cells are rendered hypoxic four hours prior to the addition of the test compound by placing them in a 37° C. incubator within an anaerobic glove chamber (Forma). […] Drug is added (0.1 ml into 2 ml media in petri dish) within the anaerobic chamber and drug treatment is at the highest nontoxic dose for one hour at 37°. The oxic x-ray dose response is determined in a similar manner except that all manipulations are carried out in air. […] Cytotoxicity controls (drug only, no irradiation) are included as well as oxic and hypoxic untreated controls (irradiation only, no drug). Immediately following irradiation, cells are rinsed twice with 2 ml fresh media prior to the addition of 5 ml of fresh media. The cells are then incubated at 37° C. After six days, dishes are stained with crystal violet and colonies of 50 or more cells are counted to determine percent surviving cells versus x-ray dose. […] This is expressed by percent reduction in Dq where Dq is defined as the dose at the intersection of the regression line for the logarithmic portion of the survival curve with the 100% survival level. This is taken to represent the width of the shoulder region of the survival curve.

KHT fibrosarcoma tumors = test: In vivo assay for radiosensitization activity; parameters: species or system hybrid mice (B6C3F1); conditions: KHT tumors in mice, relative to misonidazole
Experimental: In Vivo Assay for Radiosensitization Activity
For this assay KHT fibrosarcoma tumors in hybrid mice (B6C3F1) weighing 20-25 g are used. The mice are randomized and implanted SC with the appropriate tumor brei on Day 0 (one implant/mouse). Samples from each donor tumor and/or from the final brei are incubated in thioglycolate media as a check for gross bacterial contamination. On Day 8 tumors are measured in two dimensions with calipers and animals with tumor masses in the range of 500 to 700 mg are selected for the assay. At this point the tumors contain approximately 20% hypoxic cells.
The test agents are dissolved in any of several vehicles at a fixed injection dose equal to 90-100% of the maximum tolerated dose. Additional suitable controls of test compound (no irradiation) and vehicle-injected and irradiated mice are also included. Mice are irradiated at a dose of 1700 RADs at various intervals both prior to and after intraperitoneal administration of the test agents.
By using these intervals, an indication of both the optimum time to irradiate and the degree of sensitization are obtained. Irradiation of the KHT tumors is by whole body irradiation of animals in movement restricting jigs at different total exposures as indicated. The x-ray source is a Phillips 320 KV instrument with a half-value thickness of 2.0 mm copper and a target to source distance of 17 inches, with a delivery rate of 2.0 Gy/minute. Animals are monitored for signs of acute toxicity after treatment.
After incubation for 12-16 days at 37° and staining, the colonies are counted. The data are expressed as % control versus time.

L1210 cells = test: Inhibition of the repair of radiation-induced DNA damage as assessed by alkaline elution; type: cell-based; conditions: L1210 cells, 10 Gy x-rays, class symbols
Experimental: Inhibition of the Repair of Radiation-Induced DNA Damage as Assessed by Alkaline Elution The basic alkaline elution assay is carried out according to the procedure of K. W. Kohn, […]. Erickson, and L. A. Zwelling in DNA Repair: A Laboratory Manual of Research Procedures (eds. E. C. Freidburg and […]) with slight modifications. Briefly, suspension cultures of exponentially growing L1210 cells (total of 4×10^6 cells) are labeled with 0.02 μCi/ml of [^14 C] thymidine plus 1 nmol/ml of unlabeled thymidine for 24 hours prior to use. L1210 cells used as an internal standard are grown in media supplemented with 0.1 μCi/ml of [^3 H]thymidine and 1 nmol/ml unlabeled thymidine. For the elution protocol cells are removed from the culture flasks, centrifuged, and resuspended in fresh media. Drug treatment for experimental cells is for one hour at 37°. After the treatment period control and drug-treated cells are given a dose of 10 Gy of x-rays and incubated at 37° C. for 10 minutes to allow for repair. Samples consisting of 5×10^5 cells contained in 5 ml of ice cold PBS are deposited directly on 25 mm polycarbonate filters (2 micron pore size). The cells are washed with 5 ml of cold PBS, then lysed by the addition of 5 ml of lysis solution (0.2% SDS, 0.25M tetrasodium EDTA pH 9.7). All procedures commencing at the time of lysis are carried out in the dark. Subsequent to lysis samples are treated with 2 ml of lysis solution containing proteinase-K (0.5 mg/ml) for one hour. The filters are then eluted with tetrapropyl ammonium hydroxide/0.025M EDTA (free acid form)/0.1% SDS, pH 12.1, at a constant flow rate of 0.037 ml/min. Fractions of 2 ml are collected in scintillation vials. […] To each fraction collected and the filter solution 15 ml of modified Ready-Gel scintillation fluid containing 0.7% acetic acid is added. The frequency of single-stranded DNA breakage was calculated as described by Kohn, et al. The data is corrected for the number of single-strand breaks in the […] samples (~20%).

[1] = biological target: T1, Poly(ADP-ribose) synthetase (Bos taurus, UniProt P18493); test: Inhibition of Poly(ADP-ribose) synthetase; type: biochemical, calf; conditions: 30° C., 15 minutes, [3H]NAD; read-out: IC50
T1 construct: Poly (ADP-ribose) synthetase from calf thymus; from tissue; host or cells: calf thymus
T1 sequence (P18493 whole entry): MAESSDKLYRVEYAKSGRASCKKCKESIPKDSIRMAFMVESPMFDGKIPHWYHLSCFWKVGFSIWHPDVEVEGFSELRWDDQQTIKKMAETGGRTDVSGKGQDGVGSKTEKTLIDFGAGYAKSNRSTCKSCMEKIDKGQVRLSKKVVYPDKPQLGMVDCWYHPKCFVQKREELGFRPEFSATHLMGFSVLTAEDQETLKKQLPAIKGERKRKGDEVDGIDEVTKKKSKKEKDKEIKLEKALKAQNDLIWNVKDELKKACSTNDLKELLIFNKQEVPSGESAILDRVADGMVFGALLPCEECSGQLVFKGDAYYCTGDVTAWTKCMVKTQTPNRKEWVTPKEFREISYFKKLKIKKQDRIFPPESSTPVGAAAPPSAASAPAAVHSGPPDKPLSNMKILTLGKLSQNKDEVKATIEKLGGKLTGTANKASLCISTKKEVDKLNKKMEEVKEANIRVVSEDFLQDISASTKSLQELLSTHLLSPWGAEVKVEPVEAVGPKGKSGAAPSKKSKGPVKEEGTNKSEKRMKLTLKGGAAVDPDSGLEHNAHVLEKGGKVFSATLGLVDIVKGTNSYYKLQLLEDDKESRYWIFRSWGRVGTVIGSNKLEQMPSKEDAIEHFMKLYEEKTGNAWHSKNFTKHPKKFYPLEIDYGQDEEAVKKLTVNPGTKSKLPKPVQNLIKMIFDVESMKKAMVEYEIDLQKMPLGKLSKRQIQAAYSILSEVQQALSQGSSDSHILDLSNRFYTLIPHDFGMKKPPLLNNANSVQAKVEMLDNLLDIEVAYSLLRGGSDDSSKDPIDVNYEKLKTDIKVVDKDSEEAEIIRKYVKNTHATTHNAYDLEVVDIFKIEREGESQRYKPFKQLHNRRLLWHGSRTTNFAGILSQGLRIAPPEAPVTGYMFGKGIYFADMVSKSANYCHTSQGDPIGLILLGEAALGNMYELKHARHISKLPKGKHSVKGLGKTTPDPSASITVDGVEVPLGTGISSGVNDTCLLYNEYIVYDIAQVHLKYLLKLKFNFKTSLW
Experimental: The enzyme assay is performed by placing the following in small glass tubes kept at 4°: 100 μl of buffer consisting of 0.5M Tris-HCl pH 8.0, 50 mM MgCl2, and 5 mM dithiothreitol; 50 μl of 1 mM [^3 H]nicotinamide adenine dinucleotide having a specific activity of 15 μCi/μmol; 100 μl of calf thymus DNA (0.3 mg/ml in water); 50 μl of calf thymus histone (Sigma, Type IIA, 0.5 mg/ml); 50 μl of inhibitor or inhibitor solvent; 150 μl of enzyme. The components are thoroughly mixed and warmed to 30° C. in a water bath. After 15 minutes the reaction is stopped by adding 2 ml of ice cold 15% trichloroacetic acid and the tubes are placed on ice for 15 minutes. The precipitate is collected on glass fiber filters and washed five times with ice cold 15% trichloroacetic acid. The filters were dried and radioactivity determined in a liquid scintillation counter.

[2] = cited from earlier work; for peripheral neuropathy and convulsions: mice
hypoxic tumor cells = conditions: cited from earlier work
[3] = tested on: cells exposed to radiation; conditions: cited from earlier work
[4] = biological target: T1, Poly(ADP-ribose) synthetase; conditions: cited from earlier work

Compound: CNC=O [N-methylformamide]
sensitization of tumors to radiation (tumors): sensitize tumors to the lethal effects of radiation

IC50 [1]: 0.14 µM
Compound: Oc1cccc2c(O)nccc12 [Example I, 1,5-Dihydroxyisoquinoline]
Shoulder Modification (% Reduction in DQ) (V79 cells; hypoxic V79 cells, class symbols): - (1-14%)
In Vivo Radiosensitizing Activity (KHT fibrosarcoma tumors): +
Frequency of Unrepaired Strand Breaks (L1210 cells): + (101-200)

Compound: Cc1ncc([N+](=O)[O-])n1CCO [metronidazole, 2-methyl-5-nitro-1H-imidazole-1-ethanol]
peripheral neuropathy and convulsions [2]: peripheral neuropathy effects and convolusions in mice
CNS side effects ([2]; mouse, in vivo): serious adverse CNS side effects
CNS toxicity, use in humans ([2]; mouse, in vivo): limiting factor for their use in humans
radiosensitizing activity (hypoxic tumor cells): effective as radiosensitizers for hypoxic cells in vivo; also recorded: active both in vitro and in vivo as a radiosensitizer

Compound: COCC(O)Cn1ccnc1[N+](=O)[O-] (stereo not drawn) [misonidazole, α-(methoxymethyl)-2-nitro-1H-imidazole-1-ethanol]
CNS side effects ([2]; administered to mice): serious adverse CNS side effects
peripheral neuropathy and convulsions [2]: peripheral neuropathy effects and convolusions in mice
CNS toxicity, use in humans ([2]; use in humans): limiting factor for their use in humans
radiosensitizing activity (hypoxic tumor cells): of value as a radio-sensitizer for hypoxic tumor cells; also recorded: effective as radiosensitizers for hypoxic cells in vivo

Compound: NC(=O)c1cccc(N)c1 [3-aminobenzamide]
killing of cells by DNA-damaging agents ([3]; certain cell lines): enhanced killing of these cells by the damaging agents
inhibition of postirradiation repair [3]: inhibit this postirradiation repair process, thereby sensitizing cells to the lethal effects of radiation; also recorded: inhibited
reduction of Dq (V79 cells): does not reduce Dq
inhibition of poly(ADP-ribose)synthetase [4]: previously known best inhibitor of poly(ADP-ribose)synthetase
